Where two headings read alike, the source gives them in different places.
Key:
[1] = system: primary peritoneal mouse macrophages (PMM); experiment: cells; conditions: Macrophage
[2] = system: Leishmania infantum MHOM/MA(BE)/67/ITMAP263 intracellular amastigotes; experiment: microbe, parasite or virus in culture; conditions: Macrophage, in Mus musculus
[3] = system: Trypanosoma cruzi, Tulahuen CL2, beta-galactosidase strain; experiment: microbe, parasite or virus in culture
[4] = in vitro; conditions: human
[5] = physchem; conditions: HPLC, Ascentis Express RP Amide column
[6] = read-out: L. Inf. pIC50, from L. infantum intracellular amastigote IC50 (converted)
[7] = read-out: L. infantum MHOM/MA(BE)/67/ITMAP263 intracellular amastigotes IC50 (uM), intracellular amastigotes
[8] = MRC5, read-out: T. cruzi Tulahuen C4 (LacZ) IC50 (uM)
[9] = read-out: PMM pIC50 (converted)
[10] = read-out: L. inf. pIC50, intracellular amastigotes in PMM (converted), geometric mean of a minimum of two experiments ± standard error
[11] = read-out: L. Inf. pIC50 (converted)
[12] = read-out: L. infantum MHOM/MA(BE)/67/ITMAP263 intracellular amastigotes IC50
[13] = MRC5, read-out: T. cruzi Tulahuen C4 (LacZ) IC50
[14] = read-out: L. infantum MHOM/MA(BE)/67/ITMAP263 intracellular amastigotes IC50, intracellular amastigotes

SMILES | IC50 [2, 6] [µM] | CC50 at 3 days [4] [µM] | IC50 ([1]; read-out: PMM IC50) [µM] | IC50 [2, 11] [µM] | IC50 [2, 12] [µM] | IC50 [3, 13] [µM] | further results
COCCN(Cc1ccccc1)S(=O)(=O)c1cc(C(=O)N2CCNCC2)ccc1OC [DNDI0003392127] | 36.3 | > 64 | – | – | – | – | IC50 ([1]; read-out: PMM IC50 (uM)): > 64 µM; IC50 [2, 7]: 35.9 µM; IC50 [3, 8]: 13.4 µM
COc1ccccc1S(=O)(=O)N(Cc1ccccc1)Cc1ccccc1 [Compound 10] | – | – | – | – | – | – | IC50 [1, 9]: > 64.6 µM; IC50 [2, 10]: 0.331 µM
O=C(COc1ccc(Cl)cc1S(=O)(=O)NCc1ccccc1)N1CCOCC1 [DNDI0003363401] | – | > 55.4 | > 55.4 | > 55.4 | > 55.4 | > 55.4 | –
COCC1COc2ccc(F)cc2S(=O)(=O)N1Cc1ccccc1 (stereo not shown) [DNDI0003369451] | > 64 | > 64 | > 64 | – | – | > 64 | IC50 [2, 14]: > 64 µM
O=S1(=O)c2cc(F)ccc2OCCN1Cc1ccccc1 [DNDI0003368292] | > 64 | > 64 | > 64 | – | – | 48.9 | IC50 [2, 14]: > 64 µM
COc1ccc(OC)c(S(=O)(=O)N2CCCC2c2ccc(F)cc2)c1 (stereo not shown) [DNDI0003363388] | – | > 32 | > 32 | 9.55 | 9.59 | 25.6 | –
O=S(=O)(c1cc(F)ccc1F)N(Cc1ccc(F)cc1)Cc1ccc(F)cc1 [DNDI0003371158] | > 64 | > 64 | > 64 | – | – | > 64 | IC50 [2, 14]: > 64 µM
O=S(=O)(c1cc(F)ccc1F)N(Cc1ccc(F)cc1)Cc1ccc(F)cc1 [Compound 12] | – | – | – | – | – | – | IC50 [1, 9]: > 64.6 µM; IC50 [2, 10]: > 64.6 µM
CC[C@]1(O)C[C@@H]2CN(CCc3c([nH]c4ccccc34)[C@@](C(=O)OC)(c3cc4c(cc3OC)N(C)[C@H]3[C@@](O)(C(=O)OC)[C@H](OC(C)=O)[C@]5(CC)C=CCN6CC[C@]43[C@@H]65)C2)C1 [vinblastine, reference compound] | – | < 0.01 | – | – | – | – | –
COCCN(Cc1ccccc1)S(=O)(=O)c1cc(C(=O)N2CCOCC2)ccc1OC [DNDI0003392126] | 43.7 | > 64 | – | – | – | – | IC50 ([1]; read-out: PMM IC50 (uM)): > 64 µM; IC50 [2, 7]: 44 µM; IC50 [3, 8]: > 64 µM
COc1ccc(OC)c(S(=O)(=O)N(Cc2ccc(F)cc2)Cc2ccc(F)cc2)c1 [Compound 32] | – | – | – | – | – | – | IC50 [1, 9]: > 64.6 µM; IC50 [2, 10]: 0.537 µM; chromatographic logD ([5]; pH 7.4, elog D, HPLC measured log D, pH 7.4): 4.7
COc1ccc(OC)c(S(=O)(=O)N2CCc3ccccc3C2)c1 [DNDI0003363398] | – | > 55.4 | > 55.4 | > 55.4 | > 55.4 | > 55.4 | –
COc1ncc(C#N)cc1S(=O)(=O)N(Cc1ccc(F)cc1)Cc1ccc(F)cc1 [DNDI0003369123] | 7.59 | > 64 | > 64 | – | – | 8.4 | IC50 [2, 14]: 7.6 µM; chromatographic logD ([5]; pH 7.4, eLogD, experimental): 4.5
COc1ccc(OC)c(S(=O)(=O)N(Cc2ccccc2)C2CCN(C(C)=O)CC2)c1 [DNDI0003366132] | > 64 | > 64 | > 64 | – | – | > 64 | IC50 [2, 14]: > 64 µM; chromatographic logD ([5]; pH 7.4, eLogD, experimental): 3.1
COc1ccc(C)cc1S(=O)(=O)N(CC(=O)Nc1ccccc1)Cc1ccccc1 [DNDI0003363395] | – | > 55.4 | > 55.4 | > 49.4 | > 49.4 | 19.8 | –
CC(=O)O[C@H]1C(=O)[C@@]2(C)[C@H]([C@H](OC(=O)c3ccccc3)[C@]3(O)C[C@H](OC(=O)[C@H](O)[C@@H](NC(=O)c4ccccc4)c4ccccc4)C(C)=C1C3(C)C)[C@]1(OC(C)=O)CO[C@@H]1C[C@@H]2O [paclitaxel, reference compound] | – | < 0.01 | – | – | – | – | –
COCCNc1ccc(S(=O)(=O)N(CCOC)Cc2ccccc2)cc1 [DNDI0003366102] | 38.9 | 38.1 | > 64 | – | – | 34.8 | IC50 [2, 14]: 38.6 µM

SMILES | IC50 [2, 6] [µM] | CC50 at 3 days [4] [µM] | IC50 ([1]; read-out: PMM IC50) [µM] | IC50 [2, 11] [µM] | IC50 [2, 12] [µM] | IC50 [3, 13] [µM] | further results
CN(C)CCN(Cc1ccccc1)S(=O)(=O)c1ccccc1OC(F)(F)F [DNDI0003367256] | 8.71 | 53.4 | 45.2 | – | – | 32 | IC50 [2, 14]: 8.64 µM
O=S(=O)(c1cc(F)ccc1F)N(Cc1ccccc1)CC(O)c1ccc(F)cc1 (stereo not shown) [DNDI0003371159] | 33.1 | 18.7 | > 64 | – | – | 7.27 | IC50 [2, 14]: 33.1 µM
O=C(Cn1ccnc1[N+](=O)[O-])NCc1ccccc1 [Benznidazole, reference compound] | – | – | – | – | – | – | IC50 ([3]; MRC5, […], reference drug, T. cruzi, 7 days): 2 to 5 µM
O=C(NC(Cn1ccnc1)c1ccccc1)c1ccc(-n2cnnn2)cc1 (stereo not shown) [DNDI0003363392] | – | > 55.4 | > 55.4 | > 49.4 | > 49.4 | 9 | –
COc1ccc(C)cc1S(=O)(=O)N(CC(=O)O)Cc1ccccc1 [DNDI0003363399] | – | > 55.4 | > 55.4 | > 55.4 | > 55.4 | > 55.4 | –
COc1ccc(Cl)cc1S(=O)(=O)N(CC(=O)N1CCOCC1)Cc1ccccc1 [SCYX0001379806] | – | > 32 | > 32 | > 32 | > 32 | > 32 | –
COc1ccc(Cl)cc1S(=O)(=O)N(CC(=O)N1CCN(C)CC1)Cc1ccccc1 [DNDI0003363387] | – | > 32 | > 32 | > 32 | > 32 | > 32 | –
COc1ccc(Cl)cc1S(=O)(=O)N(CC(=O)N1CCCC1)Cc1ccccc1 [DNDI0003363389] | – | > 32 | > 32 | 15.5 | 15.5 | > 32 | –
COc1ccc(C)cc1S(=O)(=O)N(CC(N)=O)Cc1ccccc1 [DNDI0003363397] | – | > 55.4 | > 55.4 | > 55.4 | > 55.4 | > 55.4 | –
CCN(CC)C(=O)CN(Cc1ccccc1)S(=O)(=O)c1ccc(OC)c(OC)c1 [DNDI0003363394] | – | > 55.4 | > 55.4 | 32.4 | 32.1 | > 55.4 | –
CC(=O)Nc1ccc(Cl)c(C(=O)NC(Cn2ccnc2)c2ccccc2)c1 (stereo not shown) [DNDI0003363391] | – | > 55.4 | > 55.4 | > 55.4 | > 55.4 | > 55.4 | –
COc1ccc(OC)c(S(=O)(=O)n2cc(C)nc2-c2ccccc2)c1 [DNDI0003363402] | – | > 55.4 | > 55.4 | > 55.4 | > 55.4 | > 55.4 | –
COc1ccc(C)cc1S(=O)(=O)N(CC(=O)N1CCOCC1)Cc1ccccc1 [DNDI0003363393] | – | > 55.4 | > 55.4 | 19.1 | 18.9 | > 55.4 | –
COc1ccc(C)cc1S(=O)(=O)N(CC(=O)NCc1ccc(Cl)cc1)Cc1ccccc1 [DNDI0003363396] | – | > 55.4 | > 55.4 | 25.7 | 25.7 | 6.02 | –
COc1ccc(S(=O)(=O)N(CC(=O)NC2CC2)Cc2ccccc2)cc1C [DNDI0003363400] | – | > 55.4 | > 55.4 | > 49.4 | > 49.4 | > 55.4 | –
O=S1(=O)c2ccccc2OCC(Cc2ccccc2)N1Cc1ccccc1 (stereo not shown) [DNDI0003370081] | 33.1 | > 64 | 45.2 | – | – | > 64 | IC50 [2, 14]: 33.5 µM; chromatographic logD ([5]; pH 7.4, eLogD, experimental): 5

— PMC8126888 (RSC Medicinal Chemistry, 2020)
